# Test results taken from a melting point compilation (Tetko et al.; mined from patent text by program, amines drawn as free bases though some values may be those of a salt).
row,Structure (SMILES),melting point [°C]
1,Sc1ccc(-n2cnnn2)cc1,120 to 122
2,COc1ccc(CCCCNC(=O)C(F)(F)F)cc1S(N)(=O)=O,145 to 147
3,C=CCSCC(N)C(=O)O (centres undefined),212 to 213
4,O=C(NCc1ccccc1)OCCc1noc(-c2ccc(CN3CCCCCC3)s2)n1,138 to 139
5,CC(c1ccc(C(=O)O)cc1)c1cc2cc(C(F)(F)F)ccc2n1S(=O)(=O)c1cccc(C(C)(C)C)c1 (racemic),212
6,OC[C@@H]1O[C@H]1C#CC#CC#Cc1ccccc1 (relative stereo),68 to 70
7,O=C(OCc1ccccc1)C1CCCc2c1c1ccccc1n2C(=O)c1ccc(Cl)cc1 (centres undefined),123 to 124
8,COc1ccc(S(=O)(=O)Nc2ccccc2NC(=O)c2cccnc2Cl)cc1,133 to 135
9,CCNC1Cc2c[nH]c3ccc(OC)c(c23)C1(C)O (centres undefined),185 to 187
10,COc1ccc(CC(=O)N2CCC[C@H]2C(=O)O)cc1,138 to 139
11,CC(C)C#CC1(C(F)(F)F)OCC(=O)Nc2ccc(F)c(F)c21 (centres undefined),192 to 194
12,CC1(C)CC(OC(=O)c2ccccc2)CC(C)(C)N1OC(=NC1CCCCC1)NC1CCCCC1,50 to 57
13,CC(Cn1ccc(-c2ccccc2Cl)n1)C(=O)N(C)C (centres undefined),87 to 88
14,Oc1ccc(C2=CCN(CCCN3CCOCC3)CC2)cc1,166 to 168
15,CCCCC1(CCCC)CS(=O)(=O)c2ccc(N(C)C)cc2[C@H](c2ccc(OCCOCCC(C(=O)O)C(=O)O)cc2)[C@@H]1O,120
16,C=CCc1c(OC(C)=O)c(C)cc2ccc(=O)oc12,110 to 111
17,CCc1cc(=O)oc2cc(O)cc(O)c12,241 to 243
18,O=C(O)Cc1cc(C(=O)c2ccc(F)cc2)ccc1O,218
19,CC(C(=O)Nc1cccc2c1C(=O)c1c(NC(=O)C(C)N(C)C)cccc1C2=O)N(C)C (centres undefined),116 to 117
20,CCCCCCCCCCCCCCCC(=O)NCCCSc1ccncc1,84 to 85
21,CCCCCCCCOc1ncc(-c2ccc(OC(=O)[C@H]3CCCO3)cc2)cn1,75
22,CCCCCCCCOCC(CO)(CO)COCCCCCCCC,30 to 32
23,O=C(O)CNC(=O)Nc1ccc(CC(=O)OCc2ccccc2)cc1,192
24,CC(C#N)(CC#N)c1cccc([N+](=O)[O-])c1 (centres undefined),142 to 143
25,OCC=C(c1ccc(I)cc1)c1ccc(I)cc1,83 to 85
26,CN(C)C(=O)Oc1ccc(C[C@H](NC(=O)Nc2ccccc2S(=O)(=O)c2ccccc2)C(=O)O)cc1,115

row,Structure (SMILES),melting point [°C]
1,CC1(C)CCCC2(C)C3CC=C(C=O)CC(=O)C3CCC12 (centres undefined),87 to 88
2,COC(=O)C=C1CN=C(c2ccccc2F)c2cc(Cl)ccc2N1,158 to 160
3,CCCCc1nc(SCC)c(C(=O)O)n1Cc1ccc(-c2ccccc2C(=O)O)cc1,156
4,CC(C)(C)c1ccc(/C=C/C(=O)Nc2ccc3c(c2)CCO3)cc1,175 to 176
5,CC(C)(C)C(=O)c1c[nH]c2ncc(-c3cccc(N)c3)nc12,239 to 241
6,COC(C)C(O)(Cc1ccc(Cl)cc1Cl)c1cccnc1 (centres undefined),94 to 95
7,Cn1cc(Sc2ccccc2)c(=O)c(-c2cccc(C(F)(F)F)c2)c1,164 to 165
8,COc1ccc2c(c1)c(CC(=O)O)c(C)n2C(=O)c1ccc([N+](=O)[O-])o1,178 to 180
9,CCOC(=O)c1csc(-c2ccc3cc(C(=O)OCc4ccccc4)c(C45CC6CC(CC(C6)C4)C5)cc3c2)c1,98 to 100
10,CCOC(=O)C1=C(C)Nc2nc(N3CCOCC3)nc(N3CCOCC3)c2C1c1cccc(OC)c1OC (centres undefined),194
11,CCC(=CC(CNC(=O)c1nc[nH]c1C)=NO)C(C)[N+](=O)[O-] (centres undefined),125 to 127
12,CCC(=O)NCC1CCN(CCOc2ccccc2)CC1,85 to 86
13,CN(C)C=Nc1sc(C=O)c(Br)c1C#N,220
14,CCc1cc2c(s1)-n1c(C)nnc1C(CCCC(=O)O)N=C2c1ccc(Cl)cc1 (centres undefined),185 to 187
15,CC(SN1C(=O)CCC1=O)c1ccccc1 (centres undefined),121 to 125
16,COc1ccc(C=CC(=O)CC(=O)C=Cc2ccc(OC)c(O)c2)cc1O,190 to 192
17,CCC1C=C(CCN(O)C(N)=O)c2ccccc21 (centres undefined),81 to 83
18,Nc1nc(O)nc(Cl)n1,300
19,COc1ccc(C(=O)NCCCCn2cnc3c(N)nc4ccccc4c32)c(OC)n1,175 to 177
20,CCn1cccc1Cc1cccc(NC(N)=O)c1,56 to 58
21,C[C@H]1CN(c2c(F)cc3c(=O)c(C(=O)O)cn(CCF)c3c2Cl)C[C@H]1NC(=O)OC(C)(C)C (relative stereo),229 to 231
22,O=C(Oc1cc2ccccc2cn1)c1cc2ccccc2oc1=O,160 to 163
23,Cc1c[nH]c(=O)n(Cc2ccccc2)c1=O,208 to 210
24,N#CCc1cc(C(=O)O)cs1,154 to 159
25,CC(=Cc1cccc([N+](=O)[O-])c1)C(=O)O,201 to 202
26,Cc1cc(C(=O)c2[nH]c3ccc(Cl)cc3c2CC(=O)O)no1,253 to 255

row,Structure (SMILES),melting point [°C]
1,CCOC(=O)c1c(CN(CC)CC)nc2n(Cc3ccccc3)c3ccccc3n12,44 to 45
2,CCC1CC(NC(C)=O)=NN1c1cccc(Cl)n1 (centres undefined),170 to 171
3,CN(C)S(=O)(=O)c1cc2c(c(Cl)c1Cl)OC(C(=O)O)C2 (centres undefined),154
4,CNc1ncnc2c(NC3OC(CO)C(O)C3O)ncnc12 (centres undefined),230
5,CCCCCS(=O)(=O)NC(=O)/C(=C/c1ccc(OCCOC)cc1Oc1ncc(Cl)cc1Cl)CC,118
6,CCCCCCCCCCCCCCCCCCNC(=O)OCC(CNS(=O)(=O)CCCCl)COC (centres undefined),72 to 73
7,Cc1cccc(-c2nc3ccc(OCCCN4CCCC4)cc3n2Cc2ccccc2)c1,120
8,CCOC(=S)C(CC(=O)c1ccc(Oc2ccccc2)cc1)C(=O)CC (centres undefined),55 to 57
9,CC(=O)Nc1cccc(Oc2ccn3nc(-c4ccccc4)c(-c4ccc(=O)n(C(C)C)n4)c3c2)c1,178
10,CCc1ccc(C(=O)COc2ccc(CC3SC(=O)NC3=O)cc2)nc1 (centres undefined),148 to 149
11,O=C(c1ccccc1)N1CCc2nnc(NN=C3CCCCC3)cc2C1,188 to 191
12,C=S1C(=NC(F)(F)F)C(=NC(F)(F)F)N(c2ccccc2)C1C(C)=O (centres undefined),189 to 191
13,CC(C)(C)OC(=O)N1CC=C(c2cnc3c(c2)N(Cc2cc(Cl)ccc2Cl)CCN3)CC1,92 to 95
14,CC(CSC(=S)c1cccs1)C(=O)N1CCCC1C(=O)O (centres undefined),149 to 150
15,O=C(NCc1ccc(OCc2cccc(F)c2)cc1)C(=NO)c1ccccn1,146 to 148
16,Cc1cnccc1CO,77 to 80
17,Cc1cc(C)c2cccc(OCc3c(Cl)ccc(S(=O)(=O)N4CCC[C@H]4C(=O)NCCCN(C)C(=O)c4ccc(C=NN)cc4)c3Cl)c2n1,158
18,O=[N+]([O-])c1ccc(OCc2ccccc2)cc1Cl,82 to 84.5
19,O=C(CNS(=O)(=O)c1ccc2ccccc2c1)NCC(NC(=O)C1CCN(c2ccncc2)CC1)C(=O)C1CCCCN1 (centres undefined),200 to 202
20,COc1cccc(CN2CCC(c3cc(-c4ccc(Cl)cc4)[nH]n3)CC2)c1,50 to 52
21,Cn1cc(C(=O)NCc2ccc(Cl)cc2)c(=O)c2cc(CN3CC4CC3CO4)ccc21 (centres undefined),162 to 163
22,CCC1(C)OC1(C#N)C(=O)O (centres undefined),139 to 140
23,Fc1ccc(C2CC(n3ccnc3)c3ccccc3N2)cc1 (centres undefined),168 to 170
24,COc1cccc(C(=O)N2c3ccccc3C(O)CC2C)c1 (centres undefined),148 to 149
25,CCn1c(=O)n(OCc2ccccc2)c(=O)c2cc(F)c(N3CCN(C)CC3)cc21,134 to 136
26,CS(=O)(=O)c1ccc(-c2cnn(-c3ccc(Cl)s3)c(=O)c2-c2ccc(Cl)cc2)cc1,249 to 251

row,Structure (SMILES),melting point [°C]
1,Nc1nc(Nc2cccc(Br)c2)c2c(n1)[nH]c1ccccc12,234
2,O=NCNC1=Nc2ccc(Br)cc2C(c2ccccn2)=NC1,102 to 106
3,O=C1CCc2ccc3ncoc3c21,188 to 190
4,CC(NC(=O)C1(C(F)(F)F)CC(C)(Cl)C1)c1ccc(Cl)cc1 (centres undefined),129 to 130
5,O=C(O)CCCCC=Cc1cc(-c2ccccc2)c2ccccc2n1,152 to 154
6,O=C(OCCN1CCOCC1)c1cn2c(n1)COc1ccccc1-2,142 to 143
7,CCn1cc(Cl)c(=O)[nH]c1=O,217 to 220
8,Cc1nc2nc(SCc3ccccc3)nn2c(C)c1Cl,164 to 166
9,Cc1nc(C(N)=O)c2n1-c1ccc(Cl)cc1C(c1ccccc1F)=NC2,300 to 305
10,CC(=O)c1ccc2c(c1)OC(C(N)=O)CO2 (centres undefined),212
11,COC(=O)c1nc(C)[nH]c1C(=O)OC,138 to 140
12,S=c1nc(-c2ccc(-c3ccccc3)cc2)[nH]n1Cc1ccccc1,249 to 250
13,CC(C)c1nc(CCCO)n(Cc2ccncc2)c1Sc1cc(Cl)cc(Cl)c1,106 to 107
14,O=Cc1cc(C#Cc2cccc(Br)c2)c[nH]1,152 to 156
15,CC(=O)n1cc(-c2cccc(Cl)c2Cl)c(C(F)(F)F)c1,65 to 66
16,Cc1cc(OCc2cnc(-c3ccc(C(F)(F)F)cc3)nc2C2CC2)ccc1OC(C)(C)C(=O)O,191 to 192
17,Cc1nccn1C(=O)c1c(Cl)cccc1Cl,116 to 119
18,N#CCc1cc(CO)cs1,45 to 47
19,CCCSc1ncc(C(=O)N[C@H](Cc2ccccc2)C(=O)O)n1Cc1ccccc1Cl,176 to 177
20,Oc1ccccc1-c1cc(-c2ccc3c(c2)OCO3)cc(-c2ccc3ccccc3c2)n1,195 to 196
21,Cc1cc(O)n2ncc([N+](=O)[O-])c2n1,290
22,N#Cc1ccc(-c2c[nH]nc2C(F)(F)F)cc1SCC(F)(F)F,65 to 67
23,NC(CC(=O)O)c1ccc2c(c1)OCCO2 (centres undefined),222 to 223
24,Cc1cccc2c1nc(COc1ccc(Cl)cc1)n2CCC(Cc1ccccc1)C(=O)NCCCN1CCCCC1 (centres undefined),91 to 93
25,CC(C)(C)OC(=O)Nc1ccc(O)c2ccccc12,172 to 174
26,CNC(=O)Nc1ccc2[nH]cc(C3CCN(C)CC3)c2n1,229 to 230
